# Experimental data as given in paper PMC11322065, “N-demethylsinomenine metabolite and its prototype sinomenine activate mast cells via MRGPRX2 and aggravate anaphylaxis” (Frontiers in Pharmacology, 2024).
# Where a name gives a salt, the structure may show the parent alone.
# Molecular target: T1, MRGPRX2 (Homo sapiens, UniProt Q96LB1)
# T1 sequence (Q96LB1 1-330): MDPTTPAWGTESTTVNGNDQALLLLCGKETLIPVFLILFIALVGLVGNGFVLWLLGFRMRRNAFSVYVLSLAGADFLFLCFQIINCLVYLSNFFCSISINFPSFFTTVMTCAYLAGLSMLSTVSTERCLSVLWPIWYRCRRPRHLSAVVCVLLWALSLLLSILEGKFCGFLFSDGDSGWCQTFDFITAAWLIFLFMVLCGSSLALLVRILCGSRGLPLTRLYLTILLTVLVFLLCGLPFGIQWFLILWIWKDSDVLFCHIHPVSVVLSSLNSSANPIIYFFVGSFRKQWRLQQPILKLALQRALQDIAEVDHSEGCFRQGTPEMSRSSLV
# Assay: SPR, MRGPRX2 protein immobilised on CM5 chip
# Format: binding
row,SMILES,Kd
1,"COC1=C[C@@H]2[C@@H]3Cc4ccc(OC)c(O)c4[C@]2(CCN3)CC1=O [M-3, N-demethylsinomenine]",7.58 µM
2,"COC1=C[C@@H]2[C@@H]3Cc4ccc(OC)c(O)c4[C@]2(CCN3C)CC1=O [SH, sinomenine hydrochloride]",0.681 µM
